Measurements: patent US20230105725A1, “HIGHLY SAFE NON-LAMELLAR LIQUID CRYSTAL FORMING COMPOSITION” (FARNEX INCORPORATED, priority 2020, published 2023)
Read-outs that look alike come from different tables or passages of the source.

Assays:
[1] = Gel formation test of precursor formulations in excess aqueous medium; type: physicochemical; settings: self-organizing lipid (SOL) criterion
Method: The precursor formulations of Nos. 1 to 75 thus prepared were subjected to a gel formation test. An aliquot (about 100 to 300 mg) of each precursor formulation was added to an excess aqueous medium (about 0.5 to 2 mL of injectable water for Nos. 1 to 61 and 64 to 75 or phosphate buffered saline (PBS) of pH 7.4 for Nos. 62 and 63) in a vial, and mixed at room temperature (25° C.) with a spatula or a vortex mixer. As a result, all the precursor formulations of Nos. 1 to 75 produced gel compositions having colorless transparent to white turbid appearance separated in the excess aqueous medium. […]

[2] = Viscosity of the amphipathic compound; type: physicochemical
Method: Specifically, the amphipathic compound represented by the general formula (I) has a viscosity of preferably 15.0 Pa·s or less, more preferably 11.0 Pa·s or less, further preferably 6.0 Pa·s or less, by itself, as measured at 25° C. This viscosity can be measured using, for example, a viscosity and viscoelasticity measuring apparatus (Gemini II, Malvern Instruments Ltd.) at a temperature of 25° C.

Row | gel formation of the lipid used alone by mixing with water [1] | other results | Structure (SMILES)
1 | do not form a gel |  | CC(=CCCC(=O)OCC(C)O)CCCC(C)CCCC(C)C (stereo not shown) [C17 propylene glycol ester, mono-O-(5,9,13-trimethyltetradec-4-enoyl)propylene glycol]
2 | do not form a gel |  | C/C(=C\C(=O)OCC(C)O)CCCC(C)CCCC(C)CCCC(C)C (stereo not shown) [C20 propylene glycol ester, mono-O-(3,7,11,15-tetramethylhexadec-2-enoyl)propylene glycol]
3 | do not form a gel |  | CC(=CCC(=O)OCC(C)O)CCCC(C)CCCC(C)CCCC(C)C (stereo not shown) [C21 propylene glycol ester, mono-O-(4,8,12,16-tetramethylheptadec-3-enoyl)propylene glycol]
4 | do not form a gel |  | CC(=CCCC(=O)OCCC(C)O)CCCC(C)CCCC(C)CCCC(C)C (stereo not shown) [C22 butylene glycol ester, mono-O-(5,9,13,17-tetramethyloctadec-4-enoyl)1,3-butylene glycol]
5 | do not form a gel |  | CC(=CCCC(=O)OCCO)CCCC(C)CCCC(C)CCCC(C)C (stereo not shown) [C22 ethylene glycol ester, mono-O-(5,9,13,17-tetramethyloctadec-4-enoyl)ethylene glycol]
6 | do not form a gel |  | CC(=CCCC(=O)OCCC(C)(C)O)CCCC(C)CCCC(C)CCCC(C)C (stereo not shown) [C22 isoprene glycol ester, mono-O-(5,9,13,17-tetramethyloctadec-4-enoyl)3-methyl-1,3-butanediol]
7 |  | Viscosity [2]: 1.7 Pa·s | CC(=CCCC(=O)OCC(CO)(CO)CO)CCCC(C)CCCC(C)CCCC(C)C (stereo not shown) [C22 pentaerythritol ester, mono-O-(5,9,13,17-tetramethyloctadec-4-enoyl)pentaerythritol]
8 |  | Viscosity ([2]; at shear velocity of 92 1/s): 0.37 Pa·s | CC(C)=CCC/C(C)=C/CC/C(C)=C/CCC(C)=CCCC(=O)OCC(O)CO (stereo not shown) [glyceryl geranylgeranylacetate, mono-O-(5,9,13,17-tetramethyloctadeca-4,8,12,16-tetraenoyl)glycerol]
9 | do not form a gel |  | CC(C)CCCC(C)CCCC(C)CCCC(C)CC(=O)OCC(C)O (stereo not shown) [saturated C20 propylene glycol ester, mono-O-(3,7,11,15-tetramethylhexadecanoyl)propylene glycol]
10 | do not form a gel |  | CC(C)CCCC(C)CCCC(C)CCCC(C)CCCC(=O)OCC(C)O (stereo not shown) [saturated C22 propylene glycol ester, mono-O-(5,9,13,17-tetramethyloctadecanoyl)propylene glycol]
